Results: patent US12285437B2 (The Research Foundation for The State University of new York, priority 2019, dated 2025)
Like-named read-outs stand apart in the source and are kept apart here. Each block holds one compound with its values, some of them ahead of it.

How the values were obtained:
[1] = HPLC assay of Dox release from DMA prodrugs 2/4/6 at different pH values; format: physicochemical; conditions: 37° C., pH 7.4, 10 h
Method: The pH-dependence of drug release from Dox-DMA prodrugs as followed in HPLC assays. To test the pH-sensitivity of drug release, solutions of a DMA prodrug were adjusted to have pH values between 6.0 and 7.4. […] The HPLC rans were carried out with pH 8 solvents so that the DMA prodrug would not decompose during the HPLC analysis. Areas under the peaks were integrated to give the percentages.
The pH of the DMA prodrug solution was adjusted to different pH values in the range of pH 7.4-6.0. […] Representative HPLC traces are shown in ESI FIGS. S24-S29 (see these figures and their captions for more detailed information).

[2] = system: ES2 cells; test: Imaging studies (confocal microscopy); format: cell-based, human
Method: Afterwards, the treatment solution was removed; the nuclei of the cells were labeled with staining dye Hoechst 33342; and then images were taken on a scanning confocal microscope.
Imaging studies (confocal microscopy). Approximately 8,000 ES2 cells were seeded on a colIagen-coated glass dish (MatTek Corporation, part No. P35GCOL-0-10-C) and cultured in McCoy's 5A medium with 10% fetal bovine serum and 1% penicillin-streptomycin at 37° C. in the incubator (5% CO2) overnight. […] After treatment solution was removed, the cells were washed 1× with 100 μL of DMEM/F12 pH-specific media. Prior to fluorescence imaging, the nuclei of cells were stained with 1 μg/mL Hoechst 33342 in PBS for 20 min at 37° C. in the incubator. Afterwards, cells stayed in pH-specific DMEM/F12 media during imaging. […] The images in FIGS. 33-36 were processed using LAS X and ImageJ.

[3] = system: SKOV3 human ovarian cancer cells; conditions: FIG. 9A, 10 μM
Method: (§1) pH-dependent anti-proliferation assays with cells. In 96-well plates, ˜3,000 cells were seeded per well then grown for 24-48 hr until 30-40% confluency. […] For serum effect cell plate data shown in FIG. 5I, cell viability was measured using alamar Blue assay (i.e., growth media was replaced with 45 μL of pH 7.4 DMEM/F-12 media without phenol red, 5 μL of alamar Blue reagent (10×) was added; fluorescence at 590 nm was recorded after excitation at 560 nm at 1 hr afterwards).
(§2) The reaction solution was allowed to stand at rt for 1 hr in the dark, during which the pH decreased to ˜9.6. After 1 hr, the reaction solution was split into two 50-μL portions (for pH 7.4 vs. pH 6.2-6.8 cell experiments). The pH of one portion was adjusted to pH 8 (for pH 7.4 cell experiments) or pH 7 (for pH 6.2-6.8 cell experiments). Subsequently, the solution was diluted 30-fold (to 10 μM) with pH 7.4 or pH 6.2-6.8 cell media (final volume 1.5 mL) and then filtered (0.2 micron) before used in cell experiments.

[4] = system: ES-2 human ovarian cancer cells; test: pH-dependent anti-proliferation assay (MTS; alamar Blue for FIG. 7I); conditions: for Cell Viability Average (Avg): FIG. 7A, ES-2, 6 hr
From the text: pH-dependent anti-proliferation assays with cells.
NaOH to adjust the pH to 9.9.

[5] = system: PC-3 human prostate cancer cells; conditions: FIG. 9B, PC3, […], 10 μM
Method: as §1, §2

[6] = system: ES2 ovarian cancer cells; test: Antiproliferation assays against ES2 cancer cells at different pH values; format: cell-based, human
Method: For cell experiments, a pH 8 or pH 10 (directly from DMI to DMA conversion) solution of DMA 2/4/6 was sterilized by filtering through a 0.2-micron membrane. […] At this point, small amounts of 10 (or 25) mM of sterile aq.
Antiproliferation assays against ES2 cancer cells at different pH values. […] Treatment solution volume was 50-100 μL per well, with a set volume per well for all wells in a plate.

[7] = system: MDA-MB-231 human breast cancer cells
Method: as §1, §2

[8] = system: NIH:OVCAR3 human ovarian cancer cells
Method: as §1, §2

DMI formed [1]: about 13%
Compound: COc1cccc2c1C(=O)c1c(O)c3c(c(O)c1C2=O)C[C@@](O)(C(=O)CO)C[C@@H]3O[C@H]1C[C@H](N2C(=O)C(C)=C(CCC(=O)O)C2=O)[C@H](O)[C@H](C)O1 [Dox-DMI 1]
Dox channel signal among the DMI byproducts ([2]; ES2, 8 μM, 1 h): more signals
Dox fluorescence signals in cells, pH 6.7 vs. 7.7 ([2]; ES2, 1 h, 4 μM Dox or 8 μM prodrug/DMI): higher at pH 6.7 than 7.7

DMI formed [1]: 26%
Compound: COc1cccc2c1C(=O)c1c(O)c3c(c(O)c1C2=O)C[C@@](O)(C(=O)CO)C[C@@H]3O[C@H]1C[C@H](N2C(=O)C(C)=C(CCC(=O)NCCSSC[C@H](N)C(=O)O)C2=O)[C@H](O)[C@H](C)O1 [Dox-DMI-Cys 5]

Compound: COc1cccc2c1C(=O)c1c(O)c3c(c(O)c1C2=O)C[C@@](O)(C(=O)CO)C[C@@H]3O[C@H]1C[C@H](N2C(=O)C(C)=C(CCC(=O)NCCSSC[C@H](NC(=O)CC[C@H](N)C(=O)O)C(=O)NCC(=O)O)C2=O)[C@H](O)[C@H](C)O1 [Dox-DMI-GSH 7, Doxorubicin Disubstituted Maleimide Glutathione Conjugate]
Cell Viability Avg ([3]; pH 6.3-6.5): 75%
Cell Viability Avg ([3]; pH 7.5-7.6): 63%
toxicity compared to DMA 8 ([4]; ES-2, 6 h (FIG. 7A)): much less toxicity
Cell Viability Average (Avg) ([4]; 0.5 μM, pH 6.6-6.8): 90%
Cell Viability Average (Avg) ([4]; 0.5 μM, pH 7.2-7.5): 97%
Cell Viability Average (Avg) ([4]; 1 μM, pH 6.6-6.8): 79%
Cell Viability Average (Avg) ([4]; 1 μM, pH 7.2-7.5): 80%
Cell Viability Avg ([5]; pH 6.3-6.4): 90%
Cell Viability Avg ([5]; pH 7.5-7.6): 84%

DMI formed [1]: 26%
Compound: COc1cccc2c1C(=O)c1c(O)c3c(c(O)c1C2=O)C[C@@](O)(C(=O)CO)C[C@@H]3O[C@H]1C[C@H](N2C(=O)C(C)=C(CCC(=O)N[C@@H](CCC(=O)O)C(=O)O)C2=O)[C@H](O)[C@H](C)O1 [Dox-DMI-Glu 3]

Compound: CC1=C(CCC(=O)O)C(=O)OC1=O [anhydride 7, 2-propionic-3-methylmaleic anhydride]
cytotoxicity of anhydride byproduct of drug release ([6]; FIG. 29D, ES2, 2, 20 or 200 μM, pH 6.7-6.8 or 7.5-7.6, 2 h): harmless to cells
cytotoxicity of anhydride byproduct of drug release ([6]; FIG. 29D, ES2, 2, 20 or 200 μM, pH 6.7-6.8 or 7.5-7.6, 2 h, listed as anhydride byproduct 7): not cytotoxic

Compound: CC1=C(CCC(=O)N[C@@H](CCC(=O)O)C(=O)O)C(=O)OC1=O [byproduct 10, (3-(4-methyl-2,5-dioxo-2,5-dihydrofuran-3-yl)propanoyl)glutamic acid]
cytotoxicity of anhydride byproduct of drug release ([6]; FIG. 30D, ES2, 3, 30 or 300 μM, pH 6.5-6.6 or 7.4-7.5, 3 h): not cytotoxic

Compound: CC1=C(CCC(=O)NCCSSC[C@H](N)C(=O)O)C(=O)OC1=O [byproduct 12]
cytotoxicity of anhydride byproduct of drug release ([6]; FIG. 31D, ES2, 2, 20 or 200 μM, pH 6.7 or 7.4-7.5, 2 h): did not show any cytotoxicity
cytotoxicity of anhydride byproduct of drug release ([6]; FIG. 31D, ES2, 2, 20 or 200 μM, pH 6.7 or 7.4-7.5, 2 h, listed as anhydride 12): no cytotoxic effect
cytotoxicity of anhydride byproduct of drug release ([6]; FIG. 31D, ES2, 2, 20 or 200 μM, pH 6.7 or 7.4-7.5, 2 h, listed as anhydride byproduct 12): not cytotoxic

Compound: Doxorubicin Disubstituted Maleamic Acid Glutathione Conjugate [Dox-DMA-GSH 8]
higher potency than the free drug (3 μM) ([7]; MDA-MB231, 2-3 h, 6-8 μM prodrug, pHe 6.3-6.4): 2-3 ×
pHe at which maximum effects were seen ([7]; MDA-MB231, pHe titration (FIG. 7F)): 6.5
fold more potent at pHe 6.7 (than at pHe 7.4) ([4]; ES-2, 6 h): ~2 fold
potency of 1 mM of prodrug compared to 0.5 mM of free Dox ([4]; ES-2, 6 h, pHe 6.7): more potent
pHe at which the maximum effect was reached ([4]; ES-2, pHe titration (FIG. 7E)): 6.8
higher potency than the free drug (3 μM) ([8]; OVCAR3, 2-3 h, 6-8 μM prodrug, pHe 6.3-6.4): 2-3 ×
pHe at which maximum effects were seen ([8]; OVCAR3, pHe titration (FIG. 7G)): 6.5
